Read-outs that look alike come from different tables or passages of the source.

As a reminder, the IC50 is the concentration that gives 50% inhibition.

One experiment addresses T1, aminopeptidase M (Sus scrofa, UniProt P15145).
T1 construct: Purified aminopeptidase M from porcine kidney; from tissue; host or cells: porcine kidney
T1 sequence (P15145 1-963): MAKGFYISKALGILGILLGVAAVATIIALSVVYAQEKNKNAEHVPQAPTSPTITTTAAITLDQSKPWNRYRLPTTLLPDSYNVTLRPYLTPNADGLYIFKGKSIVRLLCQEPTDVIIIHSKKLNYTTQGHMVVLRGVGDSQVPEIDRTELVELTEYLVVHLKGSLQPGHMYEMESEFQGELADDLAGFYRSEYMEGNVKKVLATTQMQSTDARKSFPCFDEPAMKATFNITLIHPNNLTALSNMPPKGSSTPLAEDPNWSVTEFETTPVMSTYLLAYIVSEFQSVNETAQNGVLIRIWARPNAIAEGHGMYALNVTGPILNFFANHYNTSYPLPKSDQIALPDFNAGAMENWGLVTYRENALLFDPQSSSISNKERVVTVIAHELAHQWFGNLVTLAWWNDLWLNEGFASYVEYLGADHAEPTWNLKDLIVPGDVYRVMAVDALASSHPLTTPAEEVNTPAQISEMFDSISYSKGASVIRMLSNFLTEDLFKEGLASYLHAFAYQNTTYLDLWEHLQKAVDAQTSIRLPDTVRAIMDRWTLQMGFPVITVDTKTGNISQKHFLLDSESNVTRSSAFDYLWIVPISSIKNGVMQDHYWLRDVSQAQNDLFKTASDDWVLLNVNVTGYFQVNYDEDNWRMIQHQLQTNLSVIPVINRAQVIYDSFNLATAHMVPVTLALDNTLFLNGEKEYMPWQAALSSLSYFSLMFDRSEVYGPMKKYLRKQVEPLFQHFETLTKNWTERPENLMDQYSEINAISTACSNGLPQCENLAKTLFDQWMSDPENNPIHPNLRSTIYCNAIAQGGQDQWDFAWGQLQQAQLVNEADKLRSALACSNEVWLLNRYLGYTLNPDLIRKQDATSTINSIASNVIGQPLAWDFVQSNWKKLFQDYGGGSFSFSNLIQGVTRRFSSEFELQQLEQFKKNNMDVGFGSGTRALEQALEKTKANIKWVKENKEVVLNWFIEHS
Nature of the experiment: Selectivity against various proteases: aminopeptidase M (APM). The experiment is classed as biochemical, porcine.

Another experiment addresses T2, thrombin (Homo sapiens, UniProt P00734).
T2 construct: Purified thrombin from human plasma; from tissue; host or cells: human plasma
Put plainly: Selectivity against various proteases: thrombin (THR). Conditions: human plasma, pH 8.6, 22° C., 10 minute preincubation. The format is biochemical. How it is done:
TRY = trypsin, THR = thrombin, PLM = plasmin, CTC = cathepsin C, APM =
Enzyme: Purified thrombin from human plasma
Substrate: Tosyl-glycyl-L-prolyl-L-arginine-p-NA acetate
50 mM Tricine-NaOH buffer (PH 8.6)
Except for Cathepsin D, the enzyme activities were determined by monitoring the increase in absorbance at 410 nm caused by the hydrolysis of chromogenic substrates. The activity of Cathepsin D was determined by monitoring the absorbance of 5% trichloroacetic acid-soluble material at 280 nm.
Inhibition of enzymes by the compounds described were determined after a 10 minute preincubation with enzymes in reaction mixtures minus substrate. Reactions were initiated by the addition of substrates. The concentration used for assays were porcine pancreatic elastase at 240 nM and human Cathepsin G at 50 nM. Cathepsin D was used at the concentration that produced approximately 0.15 O.D. increase per 20 min at 280 nm under the standard conditions. All other proteases were assayed at the concentrations that produced approximately 0.1 O.D. change per minute at 410 nm under the standard conditions.

The next experiment has as its target T3, cathepsin C (Bos taurus, UniProt Q3ZCJ8).
T3 construct: Purified cathepsin C from bovine spleen; from tissue; host or cells: bovine spleen
Put plainly: Selectivity against various proteases: cathepsin C (CTC). The format is biochemical, bovine.

The next experiment has as its target T4, cathepsin D (Bos taurus, UniProt P80209).
T4 construct: Purified cathepsin D from bovine spleen; from tissue; host or cells: bovine spleen
Nature of the experiment: Selectivity against various proteases: cathepsin D (CTD). The format is biochemical, bovine.

The next experiment has as its target T5, trypsin (Bos taurus, UniProt P00760).
T5 construct: Purified trypsin from bovine pancreas; from tissue; host or cells: bovine pancreas
T5 sequence (P00760 24-246): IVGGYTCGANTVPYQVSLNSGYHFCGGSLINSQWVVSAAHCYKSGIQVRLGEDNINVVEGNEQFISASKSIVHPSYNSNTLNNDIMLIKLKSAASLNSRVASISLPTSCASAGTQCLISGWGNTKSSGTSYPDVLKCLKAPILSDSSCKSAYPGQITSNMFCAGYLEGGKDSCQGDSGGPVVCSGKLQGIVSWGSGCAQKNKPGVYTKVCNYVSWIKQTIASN
Nature of the experiment: Selectivity against various proteases: trypsin (TRY). The experiment is classed as biochemical, bovine.

Setting [1] is: cathepsin D, bovine spleen, pH 3.2, 30° C., 10 minute preincubation, read-out: CTD IC50 (converted).

T3 sequence (Q3ZCJ8 231-394 limits assumed): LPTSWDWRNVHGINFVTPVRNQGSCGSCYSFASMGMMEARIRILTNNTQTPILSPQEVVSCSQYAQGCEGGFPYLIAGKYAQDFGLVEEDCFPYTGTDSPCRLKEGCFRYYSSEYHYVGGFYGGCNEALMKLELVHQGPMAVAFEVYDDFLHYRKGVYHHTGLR
T3 sequence (Q3ZCJ8 395-463 limits assumed): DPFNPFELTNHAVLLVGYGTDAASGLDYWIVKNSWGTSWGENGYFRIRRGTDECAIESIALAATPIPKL
T3 sequence (Q3ZCJ8 25-134 limits assumed): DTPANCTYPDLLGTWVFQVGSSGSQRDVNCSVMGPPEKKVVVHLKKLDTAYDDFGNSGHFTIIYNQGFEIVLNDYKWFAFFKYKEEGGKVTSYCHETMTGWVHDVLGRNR
T4 sequence (P80209 45-390): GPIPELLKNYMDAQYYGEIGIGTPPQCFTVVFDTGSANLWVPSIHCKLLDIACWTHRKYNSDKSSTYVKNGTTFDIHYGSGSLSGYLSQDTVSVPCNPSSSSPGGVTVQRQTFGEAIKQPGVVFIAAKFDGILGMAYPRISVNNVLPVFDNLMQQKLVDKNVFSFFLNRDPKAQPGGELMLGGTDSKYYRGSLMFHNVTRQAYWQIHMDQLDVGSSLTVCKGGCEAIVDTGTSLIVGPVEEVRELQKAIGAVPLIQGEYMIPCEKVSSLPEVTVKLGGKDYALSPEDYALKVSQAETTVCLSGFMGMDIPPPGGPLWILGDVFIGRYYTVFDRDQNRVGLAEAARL
Experimental for aminopeptidase M: Enzyme: Purified aminopeptidase M from porcine kidney
50 mM Tricine buffer (pH 7.5)
Experimental for cathepsin C: Enzyme: Purified cathepsin C from bovine spleen
Substrate: Glycyl-L-phenylalanine-pNA
50 mM Citrate buffer (pH 5.4)
Inhibition of enzymes by the compounds described were determined after a 10 minute preincubation with enzymes in reaction mixtures minus substrate. Reactions were initiated by the addition of substrates. […] All other proteases were assayed at the concentrations that produced approximately 0.1 O.D. change per minute at 410 nm under the standard conditions.
Experimental for cathepsin D: Enzyme: Purified cathepsin D from bovine spleen
Substrate: Hemoglobin (bovine)
250 mM Glycine buffer (pH 3.2)
Inhibition of enzymes by the compounds described were determined after a 10 minute preincubation with enzymes in reaction mixtures minus substrate. Reactions were initiated by the addition of substrates. […] Cathepsin D was used at the concentration that produced approximately 0.15 O.D. increase per 20 min at 280 nm under the standard conditions.
Experimental for trypsin: Enzyme: Purified trypsin from bovine pancreas
Substrate: Bz-L-arginine-p-NA
50 mM Tricine[N-Tris(hydroxymethyl)methylglycine]-NaOH buffer (pH 8.8) 150 mM NaCl

With `CC1=C(C(=O)OC(c2ccccc2)c2ccccc2)N2C(=O)[C@H](Br)[C@H]2S(=O)(=O)C12CC2(c1ccc(Cl)cc1)c1ccc(Cl)cc1` (single isomer, unassigned) [Example 12, Benzhydryl 7α-bromo-2-spiro [2',2'-(4',4'-dichloro)diphenyl]cyclopropyl-3-methyl-3-cephem-4-carboxylate-1,1-dioxide], the IC50 against aminopeptidase M is 55.3 µM; against thrombin it was 55.3 µM; against cathepsin C, 55.3 µM; on cathepsin D (setting [1]), 46.2 µM.
With `CC1=C(C(=O)OC(c2ccccc2)c2ccccc2)N2C(=O)[C@H](Br)[C@H]2S(=O)(=O)C12CC2(c1ccc(F)cc1)c1ccc(F)cc1` (single isomer, unassigned) [Example 13, Benzhydryl 7α-bromo-2-spiro[2',2'-(4',4'-difluoro)diphenyl] cyclopropyl-3-methyl-3-cephem-4-carboxylate-1,1-dioxide], the IC50 against aminopeptidase M was 40 µM; at thrombin, 40 µM; against trypsin it was 40 µM; against cathepsin C it was 40 µM; on cathepsin D (setting [1]), 50 µM.
For the compound `CC1=C(C(=O)N2CCCC2)N2C(=O)[C@H](Br)[C@H]2S(=O)(=O)C12CC2(c1ccccc1)c1ccccc1` (stereo partly drawn) [Example 6, 7α Bromo-2-spiro(2',2'-diphenyl)cyclopropyl-3-methyl-3-cephem-4-pyrrolidine carboxamide-1,1-dioxide], the IC50 at aminopeptidase M (aminopeptidase M, porcine kidney, pH 7.5, 22° C., 10 minute preincubation, read-out: APM IC50 (converted)) was 9.77 µM; against thrombin, 39 µM; against trypsin, 39 µM; on cathepsin C (cathepsin C, bovine spleen, pH 5.4, 22° C., 10 minute preincubation, read-out: CTC IC50 (converted)), 9.77 µM; at cathepsin D (setting [1]), 9.77 µM.
`CO[C@H]1C(=O)N2C(C(=O)OCC(Cl)(Cl)Cl)=C(C)C3(CC3(c3ccccc3)c3ccccc3)S(=O)(=O)[C@H]12` (stereo partly drawn) [Example 8, 2,2,2-Trichloroethyl-7α-methoxy-2-spiro(2',2'-diphenyl) cyclo-propyl-3-methyl-3-cephem-4-carboxylate-1,1-dioxide]: the IC50 against aminopeptidase M, on thrombin, against cathepsin C and against cathepsin D was 9.98 µM in each case.
Take `CCOC(=O)C1CC12C(C)=C(C(=O)OC(c1ccccc1)c1ccccc1)N1C(=O)[C@H](Br)[C@H]1S2(=O)=O` (stereo partly drawn) [Example 13 (1), Benzhydryl 7α-bromo-2-spiro(2'-ethoxycarbonyl)cyclo propyl-3-methyl-3-cephem-4-carboxylate-1,1-dioxide]: the IC50 against aminopeptidase M, on thrombin and against cathepsin C was 40 µM throughout.
As to `CC1=C(C(=O)OC(c2ccccc2)c2ccccc2)N2C(=O)[C@H](Br)[C@H]2S(=O)(=O)C12CC2(C)c1ccccc1` (stereo partly drawn) [Example 13 (2), Benzhydryl 7α-bromo-2-spiro(2'-phenyl-2'-methyl) cyclopropyl-3-methyl-3-cephem-4-carboxylate-1,1-dioxide], the IC50 against aminopeptidase M was 40 µM; against thrombin, 40 µM; on cathepsin C it was 40 µM; on cathepsin D (setting [1]), 50 µM. Moreover, on trypsin (trypsin, bovine pancreas, pH 8.8, 22° C., 10 minute preincubation), the “TRY IC50” value is 0.089 µg/mL.

The values are drawn from patent publication US5264430A, “2-spirocyclopropyl cephalosporin sulfone derivatives” (SynPhar Laboratories, Inc., priority 1991, dated 1993).
